These results are taken from patent US11739078B2, “Methods of inhibiting kinases” (INSILICO MEDICINE IP LIMITED, priority 2019, dated 2023).

Molecules are shown by their SMILES. Where two headings read alike, the source gives them in different places.

The test system of test [1] is collagen type 1 alpha 1 (COL1A1) mRNA expression. Nature of the test: Collagen production assay (COL1A1 mRNA expression). It is filed as cell-based. As for the experimental part:
HDF/TERT166 working lot cells can be thawed from liquid nitrogen and expanded using standard conditions (Medium: DMEM/Ham's F12 basal medium supplemented with 1× GlutaMax-I and 10% FBS without antibiotics; 37° C. 5% CO2). For performing the treatment, cells can be seeded at a cell density of 7500 cells/cm^2 in 12-well plates the day before the first treatment. Cells can be seeded in starvation medium (DMEM/Ham's F12 basal medium supplemented with 1× GlutaMax-I and 0.5% FBS without antibiotics). Approximately 24 hours after seeding the substances can be dissolved in DMSO (stocks: 10 mM) and diluted in starvation medium to a final concentration of 10 μM. Half of this working dilution can be supplemented with 100 pg/mL TGFbeta. For each substance, two wells can be treated with a 10 μM concentration of the substance and a 10 μM concentration supplemented with 100 pg/mL TGF-beta. In parallel, cells can be treated with 100 pg/mL TGF-beta alone. Cells in starvation medium can serve as a control. For all cells treatment can be done by performing a medium exchange. […]
RNA extraction can be performed with 200 μL Chloroform, and phase separation can be achieved by centrifugation for 15 min at 12,000 g at 4° C. […] RNA concentration can be determined spectrophotometrically with a Nanodrop instrument. […]

The target in test [2] is MAP4K4 (h) (Homo sapiens (Human), UniProt O95819). The experiment in a line: MAP4K4 in vitro kinase assay (radiometric). It is filed as biochemical. As to conditions: read-out: MAP4K4_IC50. As for the experimental part: (specific activity and concentration as required). The reaction is initiated by the addition of the Mg/ATP mix. After incubation for 40 minutes at room temperature, the reaction is stopped by the addition of phosphoric acid to a concentration of 0.5%.

For test [3], the system named is Human hepatic stellate cell LX-2. Nature of the test: LX-2 fibrosis assay, collagen production. It is filed as cell-based. As to conditions: LX-2 cells stimulated with 4 ng/mL TGF-b for 48 hours, Western blot. On the procedure:
Human hepatic stellate cell LX-2 were grown in DMEM (Invitrogen, 11960) supplied with 1% MEM Non-Essential Amino Acids (Invitrogen, 11140-050), 2% fetal bovine serum (Hyclone, SV30087.03), Penicillin (100 U/mL)-streptomycin (100 μg/mL) (Millipore, TMS-AB2-C) and 2 mM L-Glutamine (Invitrogen, 25030-001). After the cells grew in 12-well plates for 24 hours, the cell culture medium was changed to the same as above except using 0.4% fetal bovine serum. After 20 hour growth in the reduced serum medium, the cells were treated with indicated doses of compounds for 30 minutes. Subsequently, the cells were stimulated with 4 ng/mL TGF-b (R&D Systems, 240-B-002) for 48 hours. The cells were rinsed twice with DPBS before being harvested with 100 μL RIPA buffer (Sigma, R10278) supplemented with protease inhibitor cocktail (Roche, 04693132001) at 4° C. The total protein in each sample was quantified using BCA Protein Assay Kit (Pierce™, 23227) and equal amount of total protein of each sample was subject to Western blot analysis. Antibodies used were mouse anti-α-Actin (SPM332) ([…]), mouse anti-CTGF (E5) ([…]), and mouse anti-collagen α1 (3G3) (sc-293182), from Santa Cruz Biotechnologies; and mouse anti-GAPDH (6C5) (EMD Millipore, MAB374).
In general terms: In western blotting, separated proteins are transferred to a membrane and probed.

Test [4] addresses TNIK (Homo sapiens (Human), UniProt Q9UKE5). The experiment in a line: TNIK enzymatic assay (radiometric kinase inhibition). It is filed as biochemical. As for the experimental part:
The compounds were studied for function as TNIK inhibitors to generate the data of Table 1. […] (specific activity and concentration as required). The reaction is initiated by the addition of the Mg/ATP mix. After incubation for 40 minutes at room temperature, the reaction is stopped by the addition of phosphoric acid to a concentration of 0.5%.

Where [5] appears, read: TNIK enzymatic assay, Table 1, read-out: IC50.

MAP4K4 (h), sequence (O95819 whole entry): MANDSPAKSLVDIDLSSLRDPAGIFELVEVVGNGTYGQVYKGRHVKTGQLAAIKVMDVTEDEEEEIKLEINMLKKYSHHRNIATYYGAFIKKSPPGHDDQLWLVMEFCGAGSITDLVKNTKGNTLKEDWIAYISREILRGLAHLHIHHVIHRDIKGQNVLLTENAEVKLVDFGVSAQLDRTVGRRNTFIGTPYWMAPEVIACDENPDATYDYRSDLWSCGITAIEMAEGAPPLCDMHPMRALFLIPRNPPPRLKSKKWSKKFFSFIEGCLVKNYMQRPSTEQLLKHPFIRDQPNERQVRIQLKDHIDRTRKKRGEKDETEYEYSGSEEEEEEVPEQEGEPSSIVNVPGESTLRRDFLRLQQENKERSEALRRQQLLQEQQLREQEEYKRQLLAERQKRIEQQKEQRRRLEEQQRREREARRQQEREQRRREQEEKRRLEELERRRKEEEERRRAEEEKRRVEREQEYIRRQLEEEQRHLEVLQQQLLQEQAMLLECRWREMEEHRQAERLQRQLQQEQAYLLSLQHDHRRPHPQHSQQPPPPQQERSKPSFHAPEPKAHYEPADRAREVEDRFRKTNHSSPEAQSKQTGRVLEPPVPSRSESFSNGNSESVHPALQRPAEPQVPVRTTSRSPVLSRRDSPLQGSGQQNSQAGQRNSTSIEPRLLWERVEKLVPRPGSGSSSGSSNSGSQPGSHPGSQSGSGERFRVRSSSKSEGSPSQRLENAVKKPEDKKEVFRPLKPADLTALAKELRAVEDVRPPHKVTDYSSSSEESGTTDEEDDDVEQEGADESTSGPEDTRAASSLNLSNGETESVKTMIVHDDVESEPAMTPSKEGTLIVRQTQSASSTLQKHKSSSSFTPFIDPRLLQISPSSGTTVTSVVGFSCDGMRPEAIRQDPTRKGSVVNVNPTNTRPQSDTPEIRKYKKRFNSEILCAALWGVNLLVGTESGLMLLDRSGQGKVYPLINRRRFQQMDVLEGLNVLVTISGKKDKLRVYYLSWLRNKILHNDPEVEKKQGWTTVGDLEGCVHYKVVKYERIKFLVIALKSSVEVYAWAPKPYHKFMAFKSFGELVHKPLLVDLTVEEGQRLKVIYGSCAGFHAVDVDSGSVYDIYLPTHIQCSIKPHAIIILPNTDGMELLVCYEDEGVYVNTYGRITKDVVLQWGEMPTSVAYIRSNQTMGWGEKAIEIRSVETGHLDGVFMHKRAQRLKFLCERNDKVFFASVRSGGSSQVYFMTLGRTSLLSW
TNIK, sequence (Q9UKE5 whole entry): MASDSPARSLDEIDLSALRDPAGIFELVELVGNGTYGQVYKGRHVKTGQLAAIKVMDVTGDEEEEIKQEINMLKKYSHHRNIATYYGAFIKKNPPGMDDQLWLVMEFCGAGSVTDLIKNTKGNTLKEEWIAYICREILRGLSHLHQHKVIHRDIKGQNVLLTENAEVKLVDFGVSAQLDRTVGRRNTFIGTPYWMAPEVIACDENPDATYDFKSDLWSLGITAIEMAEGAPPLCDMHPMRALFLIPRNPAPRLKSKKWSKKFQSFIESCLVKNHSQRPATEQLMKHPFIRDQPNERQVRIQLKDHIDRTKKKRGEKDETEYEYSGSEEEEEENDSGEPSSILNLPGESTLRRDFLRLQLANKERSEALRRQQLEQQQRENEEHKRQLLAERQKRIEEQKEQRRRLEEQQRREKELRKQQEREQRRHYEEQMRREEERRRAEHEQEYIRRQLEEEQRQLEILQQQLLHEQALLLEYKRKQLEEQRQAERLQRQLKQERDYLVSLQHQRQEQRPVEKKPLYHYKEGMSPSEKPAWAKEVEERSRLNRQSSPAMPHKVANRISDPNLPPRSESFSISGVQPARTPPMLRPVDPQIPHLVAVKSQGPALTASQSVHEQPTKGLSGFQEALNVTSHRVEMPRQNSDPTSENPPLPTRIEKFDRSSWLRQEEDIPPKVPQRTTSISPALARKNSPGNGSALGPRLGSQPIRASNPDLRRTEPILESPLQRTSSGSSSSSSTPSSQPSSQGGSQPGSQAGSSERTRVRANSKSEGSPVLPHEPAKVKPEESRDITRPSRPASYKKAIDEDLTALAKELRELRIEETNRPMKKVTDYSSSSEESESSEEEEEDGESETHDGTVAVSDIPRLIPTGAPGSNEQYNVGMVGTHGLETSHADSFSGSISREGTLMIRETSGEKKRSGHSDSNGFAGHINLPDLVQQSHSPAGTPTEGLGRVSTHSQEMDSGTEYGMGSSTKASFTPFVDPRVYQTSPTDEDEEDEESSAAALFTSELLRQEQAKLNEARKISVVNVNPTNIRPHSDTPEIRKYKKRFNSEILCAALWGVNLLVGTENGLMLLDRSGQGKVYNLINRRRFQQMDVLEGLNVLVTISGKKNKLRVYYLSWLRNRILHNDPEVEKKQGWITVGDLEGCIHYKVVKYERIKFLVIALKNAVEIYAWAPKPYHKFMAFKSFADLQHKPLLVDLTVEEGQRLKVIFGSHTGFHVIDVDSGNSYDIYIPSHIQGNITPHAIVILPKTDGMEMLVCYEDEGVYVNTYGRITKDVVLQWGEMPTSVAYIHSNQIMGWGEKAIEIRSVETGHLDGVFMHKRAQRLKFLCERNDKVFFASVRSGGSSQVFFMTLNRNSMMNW

For `CC(=O)Nc1ccc(C(=O)Nc2sc(Nc3ccccc3)nc2C(N)=O)cc1` [5-(4-acetamidobenzamido)-2-(phenylamino)-1,3-thiazole-4-carboxamide], the “collagen type 1 alpha 1 (COL1A1) mRNA expression” value in test [1] was “decreased”. Also, the “effect of TGF-beta treatment on the COL1A1 mRNA expression” value in test [1] (with TGF-beta treatment) was “inhibited”.
One may read the EC50 as the concentration needed to bring the measured effect to its halfway point. Regarding `O=C(Nc1ccccc1F)c1ccc(-c2c(-c3ccc(F)cc3)ncn2CC2CCCO2)o1` (stereo not shown) [Compound 87, N-(2-fluorophenyl)-5-(4-(4-fluorophenyl)-1-((tetrahydrofuran-2-yl)methyl)-1H-imidazol-5-yl)furan-2-carboxamide], the IC50 came to 222 nM in test [2], 76 nM in test [4] (setting [5]) and 76.5 nM in test [4] (read-out: TNIK_IC50). The molecule further yielded an EC50 in test [3] (Homo sapiens, LX-2, 48 h) of 1.5 µM.
In the case of `O=C(Nc1ccccc1F)c1ccc(-c2c(-c3ccncc3)ncn2C2CCCC2)o1` [Compound 91, 5-(1-cyclopentyl-4-(pyridin-4-yl)-1H-imidazol-5-yl)-N-(2-fluorophenyl)furan-2-carboxamide], the IC50 in test [2] amounted to 566 nM; in test [4] (read-out: TNIK_IC50) it was 136 nM. Also, it took 1.53 µM to reach a half-maximal effect in test [3] (Homo sapiens, LX-2, 48 h) (EC50).
In the same order, the values of `O=C(Nc1ccccc1F)c1ccc(-c2c(-c3cccnc3)ncn2C2CCCC2)o1` [Compound 92, 5-(1-cyclopentyl-4-(pyridin-3-yl)-1H-imidazol-5-yl)-N-(2-fluorophenyl)furan-2-carboxamide] are 112 nM, 93.2 nM and 4.28 µM.
`O=C(Nc1ccccc1F)c1ccc(-c2c(-c3ccc(F)nc3)ncn2C2CCCC2)o1` [Compound 93, 5-(1-cyclopentyl-4-(6-fluoropyridin-3-yl)-1H-imidazol-5-yl)-N-(2-fluorophenyl)furan-2-carboxamide]: the IC50 turned out to be 131 nM in test [2], 36 nM in test [4] (setting [5]) and 36.4 nM in test [4] (read-out: TNIK_IC50). The same molecule had an EC50 in test [3] (Homo sapiens, LX-2, 48 h) of 0.754 µM.
Take `O=C(Nc1c(O)cncc1F)c1ccc(-c2c(-c3ccc(F)cc3)ncn2C2COC2)o1` [Compound A-45, N-(3-fluoro-5-hydroxypyridin-4-yl)-5-(4-(4-fluorophenyl)-1-(oxetan-3-yl)-1H-imidazol-5-yl)furan-2-carboxamide]: the IC50 in test [2] was found to be 6870 nM; in test [4] (read-out: TNIK_IC50) it was 3720 nM. In test [3] (Homo sapiens, LX-2, 48 h), this molecule returned an EC50 of more than 10 µM.
Turning to `O=C(Nc1cc[nH]c(=O)c1)c1ccc(-c2c(-c3ccc(F)cc3)ncn2C2COC2)o1` [Compound A-46, 5-(4-(4-fluorophenyl)-1-(oxetan-3-yl)-1H-imidazol-5-yl)-N-(2-oxo-1,2-dihydropyridin-4-yl)furan-2-carboxamide], the IC50 was 8300 nM in test [2] and 5380 nM in test [4] (read-out: TNIK_IC50). The concentration giving a half-maximal response (EC50) in test [3] (Homo sapiens, LX-2, 48 h) was more than 10 µM.
With `Cn1cnc(-c2ccc(F)cc2)c1-c1ccc(C(=O)Nc2ccncc2F)o1` [Compound A-49, 5-(4-(4-fluorophenyl)-1-methyl-1H-imidazol-5-yl)-N-(3-fluoropyridin-4-yl)furan-2-carboxamide], the IC50 is more than 1000 nM in test [2] and 125 nM in test [4] (read-out: TNIK_IC50). In addition, the EC50 in test [3] (Homo sapiens, LX-2, 48 h) is 0.401 µM.
As to `O=C(Nc1ccncc1F)c1ccc(-c2c(-c3ccc(F)cc3)ncn2C2COCC2F)o1` (stereo not drawn) [Compound A-53, S-(4-(4-fluorophenyl)-1-(4-fluorotetrahydrofuran-3-yl)-1H-imidazol-S-yl)-N-(3-fluoropyridin-4-yl)furan-2-carboxamide], the IC50 was determined as 337 nM in test [2] and 191 nM in test [4] (read-out: TNIK_IC50). For the same molecule, the midpoint of the response in test [3], the EC50, lay at 1.98 µM.
With `O=C(Nc1ccncn1)c1ccc(-c2c(-c3ccc(F)cc3)ncn2C2COCC2F)o1` (stereo not shown) [Compound A-55, 5-(4-(4-fluorophenyl)-1-(4-fluorotetrahydrofuran-3-yl)-1H-imidazol-5-yl)-N-(pyrimidin-4-yl)furan-2-carboxamide], the IC50 came out at 301 nM in test [2] and 91 nM in test [4] (read-out: TNIK_IC50). Further, a half-maximal effect in test [3] (Homo sapiens, LX-2, 48 h) (EC50) was put at 0.437 µM.
For the molecule `Cc1cc(NC(=O)c2ccc(-c3c(-c4ccc(F)cc4)ncn3C3COCC3F)o2)c(F)cn1` (stereo not shown) [Compound A-58, N-(5-fluoro-2-methylpyridin-4-yl)-5-(4-(4-fluorophenyl)-1-(4-fluorotetrahydrofuran-3-yl)-1H-imidazol-5-yl)furan-2-carboxamide], the IC50 in test [2] is 95.4 nM; in test [4] (read-out: TNIK_IC50) it was 75.2 nM. For the same molecule, in test [3] (Homo sapiens, LX-2, 48 h), the EC50 came to 0.669 µM.
